In patent publication US9096589B2, “Heteroaromatic phenylimidazole derivatives as PDE10A enzyme inhibitors” (H. Lundbeck A/S, priority 2009, dated 2015):

Biological target: PDE10A (Homo sapiens (Human), UniProt Q9Y233)
Assay: PDE10A inhibition assay
Format: biochemical
Method: Active PDE10A enzyme is prepared in a number of ways for use in PDE assays (Loughney, K. et al. Gene 1999, 234, 109-117; Fujishige, K. et al. Eur J. Biochem. 1999, 266, 1118-1127 and Soderling, S. et al. Proc. Natl. Acad. Sci. 1999, 96, 7071-7076). PDE10A can be expressed as full-length proteins or as truncated proteins, as long as they express the catalytic domain. PDE10A can be prepared in different cell types, for example insect cells or E. coli. An example of a method to obtain catalytically active PDE10A is as follows: The catalytic domain of human PDE10A (amino acids 440-779 from the sequence with accession number NP 006652) is amplified from total human brain total RNA by standard RT-PCR and is cloned into the BamH1 and Xho1 sites of the pET28a vector (Novagen). Expression in coli is performed according to standard protocols. Briefly, the expression plasmids are transformed into the BL21(DE3) E. coli strain, and 50 mL cultures inoculated with the cells allowed to grow to an OD600 of 0.4-0.6 before protein expression is induced with 0.5 mM IPTG. Following induction, the cells are incubated overnight at room temperature, after which the cells are collected by centrifugation. Cells expressing PDE10A are resuspended in 12 mL (50 mM TRIS-HCl-pH8.0, 1 mM MgCl2 and protease inhibitors). The cells are lysed by sonication, and after all cells are lysed, TritonX100 is added according to Novagen protocols.
A PDE10A assay may for example, be performed as follows: The assay is performed in 60 uL samples containing a fixed amount of the relevant PDE enzyme (sufficient to convert 20-25% of the cyclic nucleotide substrate); a buffer (50 mM HEPES7.6; 10 mM MgCl2; 0.02% Tween20), 0.1 mg/ml BSA, 225 pCi of ^3H-labelled cyclic nucleotide substrate, tritium labeled cAMP to a final concentration of 5 nM and varying amounts of inhibitors. Reactions are initiated by addition of the cyclic nucleotide substrate, and reactions are allowed to proceed for one hr at room temperature before being terminated through mixing with 15 uL 8 mg/mL yttrium silicate SPA beads (Amersham). The beads are allowed to settle for one hr in the dark before the plates are counted in a Wallac 1450 Microbeta counter. The measured signal can be converted to activity relative to an uninhibited control (100%) and IC50 values can be calculated using the Xlfit extension to EXCEL.

Chain of PDE10A (Q9Y233 716-1055): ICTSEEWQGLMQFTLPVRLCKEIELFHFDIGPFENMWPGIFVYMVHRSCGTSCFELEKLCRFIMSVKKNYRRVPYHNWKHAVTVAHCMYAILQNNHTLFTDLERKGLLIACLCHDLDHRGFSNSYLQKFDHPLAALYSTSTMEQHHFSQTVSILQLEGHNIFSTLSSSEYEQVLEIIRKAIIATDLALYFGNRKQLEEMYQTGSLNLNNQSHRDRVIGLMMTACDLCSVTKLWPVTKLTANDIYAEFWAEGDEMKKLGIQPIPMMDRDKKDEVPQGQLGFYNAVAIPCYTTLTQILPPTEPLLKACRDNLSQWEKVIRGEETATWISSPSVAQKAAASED

SMILES	IC50
Cc1cc(C)n2cc(CCc3nc(-c4cncs4)cn3CC(O)c3ccc(Cl)cc3)nc2n1 (stereo not shown) [1-(4-Chloro-phenyl)-2-{2-[2-(5,7-dimethyl-imidazo[1,2-a]pyrimidin-2-yl)-ethyl]-4-thiazol-5-yl-imidazol-1-yl}-ethanol]	5.7 nM
COCC(O)Cn1cc(-c2cccs2)nc1CCc1nc2cccc(C)n2n1 (stereo not shown) [1-Methoxy-3-{2-[2-(5-methyl-[1,2,4]triazolo[1,5-a]pyridin-2-yl)-ethyl]-4-thiophen-2-yl-imidazol-1-yl}-propan-2-ol]	7.5 nM
Cc1cc(C)n2cc(CCc3nc(-c4cccs4)cn3CC(C)C)nc2n1 [2-[2-(1-Isobutyl-4-thiophen-2-yl-1H-imidazol-2-yl)-ethyl]-5,7-dimethyl-imidazo[1,2-a]pyrimidine]	12 nM
COc1ccc(C)n2nc(CCc3nc(-c4ccoc4)cn3C)nc12 [2-[2-(4-Furan-3-yl-1-methyl-1H-imidazol-2-yl)-ethyl]-8-methoxy-5-methyl-[1,2,4]triazolo[1,5-a]pyridine]	4 nM
Cc1cc(C)n2cc(/C=C/c3nc(-c4ccoc4)cn3C)nc2n1 [2-[(E)-2-(4-Furan-3-yl-1-methyl-1H-imidazol-2-yl)-vinyl]-5,7-dimethyl-imidazo[1,2-a]pyrimidine]	140 nM
COc1cccn2nc(/C=C/c3nc(-c4ccoc4)cn3C)nc12 [2-[(E)-2-(4-Furan-3-yl-1-methyl-1H-imidazol-2-yl)-vinyl]-8-methoxy-[1,2,4]triazolo[1,5-a]pyridine]	47 nM
Cc1cccc2nc(/C=C/c3nc(-c4ccco4)cn3COCC[Si](C)(C)C)nn12 [2-{(E)-2-[4-Furan-2-yl-1-(2-trimethylsilanyl-ethoxymethyl)-1H-imidazol-2-yl]-vinyl}-5-methyl-[1,2,4]triazolo[1,5-a]pyridine]	46 nM
Cc1cc(C)n2nc(CCc3nc(-c4cccnc4)cn3C)nc2n1 [5,7-Dimethyl-2-[2-(1-methyl-4-pyridin-3-yl-1H-imidazol-2-yl)-ethyl]-[1,2,4]triazolo[1,5-a]pyrimidine]	44 nM
Cc1cc(C)n2nc(CCc3nc(-c4cccs4)cn3C)nc2n1 [5,7-Dimethyl-2-[2-(1-methyl-4-thiophen-2-yl-1H-imidazol-2-yl)-ethyl]-[1,2,4]triazolo[1,5-a]pyrimidine]	4.2 nM
Cc1cc(C)n2cc(CCc3nc(-c4ccsc4)cn3C)nc2n1 [5,7-Dimethyl-2-[2-(1-methyl-4-thiophen-3-yl-1H-imidazol-2-yl)-ethyl]-imidazo[1,2-a]pyrimidine]	33 nM
Cc1cc(C)n2cc(/C=C/c3nc(-c4cnccn4)cn3C)nc2n1 [5,7-Dimethyl-2-[(E)-2-(1-methyl-4-pyrazin-2-yl-1H-imidazol-2-yl)-vinyl]-imidazo[1,2-a]pyrimidine]	340 nM
Cc1cc(C)n2cc(/C=C/c3nc(-c4cccs4)cn3C)nc2n1 [5,7-Dimethyl-2-[(E)-2-(1-methyl-4-thiophen-2-yl-1H-imidazol-2-yl)-vinyl]-imidazo[1,2-a]pyrimidine]	8.8 nM
Cc1cc(C)n2cc(CCc3nc(-c4cccs4)cn3CCN3CCOCC3)nc2n1 [5,7-Dimethyl-2-{2-[1-(2-morpholin-4-yl-ethyl)-4-thiophen-2-yl-1H-imidazol-2-yl]-ethyl}-imidazo[1,2-a]pyrimidine]	36 nM
Cc1cc(C)n2cc(CCc3nc(-c4cccs4)cn3COCC[Si](C)(C)C)nc2n1 [5,7-Dimethyl-2-{2-[4-thiophen-2-yl-1-(2-trimethylsilanyl-ethoxymethyl)-1H-imidazol-2-yl]-ethyl}-imidazo[1,2-a]pyrimidine]	9.6 nM

The remaining lines, values ahead:

IC50	SMILES
8.4 nM	COCC(O)Cn1cc(-c2cccs2)nc1CCc1nc2c(C)cccn2n1 (stereo not shown) [1-Methoxy-3-{2-[2-(8-methyl-[1,2,4]triazolo[1,5-a]pyridin-2-yl)-ethyl]-4-thiophen-2-yl-imidazol-1-yl}-propan-2-ol]
58 nM	COCC(O)Cn1cc(-c2cncs2)nc1CCc1cn2c(C)cc(C)nc2n1 (stereo not shown) [1-{2-[2-(5,7-Dimethyl-imidazo[1,2-a]pyrimidin-2-yl)-ethyl]-4-thiazol-5-yl-imidazol-1-yl}-3-methoxy-propan-2-ol]
14 nM	Cc1cc(C)n2cc(CCc3nc(-c4cccs4)cn3CC(O)CF)nc2n1 (stereo not shown) [1-{2-[2-(5,7-Dimethyl-imidazo[1,2-a]pyrimidin-2-yl)-ethyl]-4-thiophen-2-yl-imidazol-1-yl}-3-fluoro-propan-2-ol]
7.9 nM	COCC(O)Cn1cc(-c2cccs2)nc1CCc1cn2c(C)cc(C)nc2n1 (stereo not shown) [1-{2-[2-(5,7-Dimethyl-imidazo[1,2-a]pyrimidin-2-yl)-ethyl]-4-thiophen-2-yl-imidazol-1-yl}-3-methoxy-propan-2-ol]
46 nM	Cc1cc(C)n2cc(CCc3nc(-c4cccs4)cn3C3CCCC3)nc2n1 [2-[2-(1-Cyclopentyl-4-thiophen-2-yl-1H-imidazol-2-yl)-ethyl]-5,7-dimethyl-imidazo[1,2-a]pyrimidine]
160 nM	Cc1cc(C)n2cc(CCc3nc(-c4cccs4)cn3C(C)C)nc2n1 [2-[2-(1-Isopropyl-4-thiophen-2-yl-1H-imidazol-2-yl)-ethyl]-5,7-dimethyl-imidazo[1,2-a]pyrimidine]
2.9 nM	Cc1ncc(C)n2nc(CCc3nc(-c4ccoc4)cn3C)nc12 [2-[2-(4-Furan-3-yl-1-methyl-1H-imidazol-2-yl)-ethyl]-5,8-dimethyl-[1,2,4]triazolo[1,5-a]pyrazine]
25 nM	Cc1cc(C)n2cc(/C=C/c3nc(-c4ccco4)cn3C)nc2n1 [2-[(E)-2-(4-Furan-2-yl-1-methyl-1H-imidazol-2-yl)-vinyl]-5,7-dimethyl-imidazo[1,2-a]pyrimidine]
210 nM	COCCn1cc(-c2cncs2)nc1CCc1cn2c(C)cc(C)nc2n1 [2-{2-[1-(2-Methoxy-ethyl)-4-thiazol-5-yl-1H-imidazol-2-yl]-ethyl}-5,7-dimethyl-imidazo[1,2-a]pyrimidine]
130 nM	COCCn1cc(-c2cccs2)nc1CCc1cn2c(C)cc(C)nc2n1 [2-{2-[1-(2-Methoxy-ethyl)-4-thiophen-2-yl-1H-imidazol-2-yl]-ethyl}-5,7-dimethyl-imidazo[1,2-a]pyrimidine]
10000 nM	Cc1cccc2nc(CCc3nc(-c4cccs4)cn3C[C@@H](O)CN(C)CCC#N)nn12 [3-[((S)-2-Hydroxy-3-{2-[2-(5-methyl-[1,2,4]triazolo[1,5-a]pyridin-2-yl)-ethyl]-4-thiophen-2-yl-imidazol-1-yl}-propyl)-methyl-amino]-propionitrile]
1.7 nM	COc1ccc(C)n2nc(CCc3nc(-c4cccs4)cn3CCCC#N)nc12 [4-{2-[2-(8-Methoxy-5-methyl-[1,2,4]triazolo[1,5-a]pyridin-2-yl)-ethyl]-4-thiophen-2-yl-imidazol-1-yl}-butyronitrile]
45 nM	Cc1cc(C)n2cc(CCc3nc(-c4cccs4)cn3C)nc2n1 [5,7-Dimethyl-2-[2-(1-methyl-4-thiophen-2-yl-1H-imidazol-2-yl)-ethyl]-imidazo[1,2-a]pyrimidine]
3.4 nM	CCCn1cc(-c2cccs2)nc1CCc1cn2c(C)cc(C)nc2n1 [5,7-Dimethyl-2-[2-(1-propyl-4-thiophen-2-yl-1H-imidazol-2-yl)-ethyl]-imidazo[1,2-a]pyrimidine]
220 nM	Cc1cc(C)n2cc(/C=C/c3nc(-c4cccnc4)cn3C)nc2n1 [5,7-Dimethyl-2-[(E)-2-(1-methyl-4-pyridin-3-yl-1H-imidazol-2-yl)-vinyl]-imidazo[1,2-a]pyrimidine]
180 nM	Cc1cc(C)n2cc(/C=C/c3nc(-c4cscn4)cn3C)nc2n1 [5,7-Dimethyl-2-[(E)-2-(1-methyl-4-thiazol-4-yl-1H-imidazol-2-yl)-vinyl]-imidazo[1,2-a]pyrimidine]
97 nM	Cc1cc(C)n2cc(/C=C/c3nc(-c4cncs4)cn3C)nc2n1 [5,7-Dimethyl-2-[(E)-2-(1-methyl-4-thiazol-5-yl-1H-imidazol-2-yl)-vinyl]-imidazo[1,2-a]pyrimidine]
56 nM	Cc1cc(C)n2cc(/C=C/c3nc(-c4ccsc4)cn3C)nc2n1 [5,7-Dimethyl-2-[(E)-2-(1-methyl-4-thiophen-3-yl-1H-imidazol-2-yl)-vinyl]-imidazo[1,2-a]pyrimidine]
6.8 nM	Cc1cc(C)n2cc(CCc3nc(-c4cccs4)cn3CCC(C)C)nc2n1 [5,7-Dimethyl-2-{2-[1-(3-methyl-butyl)-4-thiophen-2-yl-1H-imidazol-2-yl]-ethyl}-imidazo[1,2-a]pyrimidine]
38 nM	Cc1cc(C)n2nc(CCc3nc(-c4ccc(C)o4)cn3C)nc2n1 [5,7-Dimethyl-2-{2-[1-methyl-4-(5-methyl-furan-2-yl)-1H-imidazol-2-yl]-ethyl}-[1,2,4]triazolo[1,5-a]pyrimidine]
